“Also recorded” adds a separate entry of the source.
Experiments:
PKA = PKA ELISA of retinal lysates after Compound 2 eye drops in diabetic rats; assay type: in vivo, rat; conditions: topical 1 mM once daily for 4 days, compared with other doses (1 mM to 20 mM), hydrochloride
Procedure: To determine whether topical application of Compound 2 could reach the retina and elicit response, dose and time course studies were performed. For those studies, animals were made diabetic for 2 months using STZ. For 4 days, rats received a variety of doses of either Compound 2 (1 mM to 20 mM) or PBS once or twice each day. After the 4 days of eye drop treatment to both eyes, the diabetic and control animals were euthanized. Since beta-adrenergic receptor stimulation should increase cyclic adenosine monophosphase production and activate protein kinase A, retinal lysates were processed for a PKA ELISA (MesaCup PKA ELISA, Upstate, Temecula, Calif.). […] At 2 or 8 months, retinas were assessed for diabetes-induced degeneration of retinal cell numbers and retinal thickness (2 months) and for degenerate capillaries (8 months). TNF activity, cleaved caspase 3 and phosphorylation of insulin receptor beta and Akt were assessed at both time points. […]

[1] = test system: insulin receptor beta (Tyr 1150/1151); test: Western blot of phosphorylated to total insulin receptor beta in rat retina; assay type: in vivo; conditions: diabetic rats, 1 mM eye drops
From the text: The other eye from each animal was used for protein analyses for inflammatory markers and insulin receptor signaling. Western blotting was done as described (9). Antibodies used were total insulin receptor beta (1:500, Cellular Signaling, Danvers, Mass.), phosphorylated insulin receptor beta (Tyr 1150/1151, 1:500, Cellular Signaling, Danvers, Mass.), total Akt (1:500, Cellular Signaling, Danvers, Mass.), and phosphorylated Akt (Ser 473, 1:500, Cellular Signaling, Danvers, Mass.). For analyses of the data, mean densitometry values were obtained using the Kodak 2.0 software. The ratio of phosphorylated protein was compared to levels of total protein.

[2] = test system: electrical activity of the retina of diabetic rats; test: Electroretinogram (ERG) analyses in diabetic rats; assay type: in vivo, rat
Procedure: Each month of the experiment, electroretinogram (ERG) analyses were performed on rats from the three groups. Electroretinogram analyses were done to evaluate changes in electrical activity of the retina and as a measure of drug effectiveness. For the electroretinogram analyses, rats were dark adapted overnight. The following morning, the rats were anesthetized using an intraperitoneal injection of a ketamine (0.6 ml/kg body weight) and xylazine (0.375 ml/kg body weight) cocktail. The pupil of each eye was fully dilated using a 1% tropicamide solution (Alcon). To protect the eye and assist in maintaining a good electrical connection, a drop of methylcellulose solution was added to each eye (Celluvisc; Allergan, Irvine, Calif.). Body temperature was maintained at 37° C. with a water-based heating pad. The electroretinogram responses were recorded from both eyes simultaneously using platinum wire corneal electrodes, a forehead reference electrode, and ground electrode in the tail. The electroretinogram stimuli were delivered via the Diagnosys LLC system. All animals tested recovered from anesthesia after the electroretinogram recording sessions. No animals with gross cataract were used for electroretinogram analyses.
Electroretinogram responses were recorded in response to brief (4 ms) white LED and then from the Xenon arc lamp delivered at 2.1-second intervals for dim stimuli and 35 second frames for brighter stimuli. The range of stimulus intensities extended from −4.0 to 1.0 log cd*s/m2 for analysis of the b-wave amplitudes. Electroretinogram waveforms were recorded with a bandwidth of 0.3-500 Hz and sampled at 2 kHz by a digital acquisition system (Diagnosys) and were analyzed using MatLab (The MathWorks, Natick, Mass.). […]
For assessment of the oscillatory potentials, stimuli were administered at 3 log (cd*s/m2). Data analysis for the oscillatory potentials was obtained using MatLab software with a digital band-pass filter set for 60-300 Hz and the peak wavelets of the 4 wavelets were measured from trough to peak. […]

[3] = test system: retinal capillaries of diabetic rats; test: Quantitation of acellular (degenerate) capillaries in trypsin-digested retinal vasculature; assay type: in vivo, rat; conditions: 1 mM eye drops, 8 months of diabetes, hydrochloride
Procedure: For the acellular capillary counts, retinas from an eye of control, diabetic, and diabetic+2 were used. Eyes were enucleated and placed into 10% buffered formalin for 5 days. The retina was dissected in 3% crude trypsin solution (Difco Bacto Trypsin 250, Detroit, Mich.) containing 0.2 M sodium fluoride at 37 C for 2 hours (5). The neural retina was gently brushed away and the remaining retinal vascular tree was dried onto a glass slide. Once the isolated retinal vascular tree was dried onto the glass slide, the slide was stained with hematoxylin-periodic acid-Schiff. Degenerate (acellular) capillaries were counted in mid-retina in six to seven fields evenly spaced around the retina. Degenerate capillaries were identified as capillary-sized tubes having no nuclei anywhere along their length. Degenerate capillaries were counted only if their average diameter was at least 20% of that found in surrounding healthy capillaries (6-7).

COc1cc(CCNC[C@H](O)c2ccc(O)c(O)c2)cc(OC)c1OC.Cl (single isomer, unassigned) [Compound 2, 4-[1-hydroxy-2-(1-ethylamino-3-,4-,5-trimethoxyphenyl)ethyl]benzene-1,2-diol hydrochloride]
PKA activity in the retina (PKA): showed the highest increase in PKA activity; also recorded: significantly increased PKA activity in the retina | insulin receptor beta tyrosine phosphorylation, 2 months ([1]; 2 months of diabetes): maintained insulin receptor beta tyrosine phosphorylation at levels similar to control animals | insulin receptor beta tyrosine phosphorylation, 8 months ([1]; 8 months of diabetes): also maintained | retinal function (ERG), delayed treatment ([2]; 6 month diabetic rats receiving Compound 2 therapy for 2 months): had improved retinal function | B-wave amplitude ([2]; daily topical 1 mM from one week after STZ, ERG after 6 weeks): inhibited the loss of B-wave amplitude | ERG amplitudes (a-wave, b-wave, oscillatory potentials) ([2]; diabetic rats, topical 1 mM daily from onset, over 8 months, hydrochloride): inhibited the loss of amplitude of B-wave and oscillatory potentials; also recorded: can inhibit the loss of all three components of the ERG over the entire 8-month period | numbers of degenerate capillaries [3]: significantly reduced numbers of degenerate capillaries; also recorded: significantly reduce numbers of degenerate capillaries to levels similar to controls
